Patent US20240400547A1, “2,6-PIPERIDINEDIONE COMPOUND AND APPLICATION THEREOF” (MEDSHINE DISCOVERY INC., priority 2021, published 2024)
Structures can show the parent of a compound that is named as a salt.

Tests used:
SU-DHL-2 = test: Antiproliferative effect in lymphoma cell line SU-DHL-2 (CellTiter-Glo); assay type: cell-based, human; settings: SU-DHL-2, 4 days
Experimental: Experimental purpose: The experiment aims to evaluate the inhibitory effects of the test compounds on cell proliferation in the lymphoma cell line SU-DHL-2.
The tumor cell lines were cultured in a 37° C., 5% CO2 incubator under the above culture conditions. Regular passage, and cells in logarithmic growth phase were taken for plating.
• (1) Cells were stained with trypan blue and viable cells were counted. • (2) The cell concentration was adjusted to an appropriate concentration.
• (3) 50 μL of cell suspension per well was added to the culture plate as shown in the figure above. • (4) The culture plate was cultured overnight in a 37° C., 5% CO2 incubator with 100% relative humidity.
Compounds were added using the Echo655 instrument. The volume of compound added was 50 nL, with a final DMSO concentration of 0.1%. The culture plate was centrifuged at 1000 rpm for 1 minute, then incubated for 4 days in an incubator at 37° C., 5% CO2, and with 100% relative humidity.
The following steps were performed according to the instructions of Promega CellTiter-Glo luminescent cell viability assay kit (Promega-G7573). • (1) CellTiter-Glo buffer was melted and brought to room temperature. • (2) CellTiter-Glo substrate was brought to room temperature. • (3) CellTiter-Glo working solution was prepared by adding CellTiter-Glo buffer to a vial of CellTiter-Glo substrate to dissolve the substrate; • (4) The mixture was slowly vortexed and shaken to be fully dissolved. • (5) The cell culture plate was taken out and left for 30 minutes to equilibrate to room temperature. • (6) 25 μL of CellTiter-Glo working solution was added per well (equal to half the volume of cell culture medium per well). The cell plate was wrapped in aluminum foil to be protected from light. • (7) The culture plate was shaken on an orbital shaker for 2 minutes to induce cell lysis. • (8) The culture plate was left at room temperature for 10 minutes to stabilize the luminescent signal. • (9) The luminescent signal was detected on a 2104 EnVision plate reader.
The inhibition rate (IR) of the test compound was calculated using the following formula: IR (%)=(1−(RLU compound/RLU blank control)/(RLU vehicle control−RLU blank control)×100%. The inhibition rates of compounds at different concentrations were calculated in Excel, and then GraphPad Prism software was used to plot inhibition curves and calculate relevant parameters, including minimum inhibition rate, maximum inhibition rate, and IC50.

IRAK4 = target: T1, IRAK4 (Homo sapiens, UniProt Q9NWZ3); test: Target protein degradation in K562 IRAK4-HiBiT cells (Nano-Glo HiBiT); assay type: cell-based; settings: 16 to 18 hours
T1 construct: expressed in transfected cells; host or cells: K562 IRAK4-HiBiT cells
T1 sequence (Q9NWZ3 1-460): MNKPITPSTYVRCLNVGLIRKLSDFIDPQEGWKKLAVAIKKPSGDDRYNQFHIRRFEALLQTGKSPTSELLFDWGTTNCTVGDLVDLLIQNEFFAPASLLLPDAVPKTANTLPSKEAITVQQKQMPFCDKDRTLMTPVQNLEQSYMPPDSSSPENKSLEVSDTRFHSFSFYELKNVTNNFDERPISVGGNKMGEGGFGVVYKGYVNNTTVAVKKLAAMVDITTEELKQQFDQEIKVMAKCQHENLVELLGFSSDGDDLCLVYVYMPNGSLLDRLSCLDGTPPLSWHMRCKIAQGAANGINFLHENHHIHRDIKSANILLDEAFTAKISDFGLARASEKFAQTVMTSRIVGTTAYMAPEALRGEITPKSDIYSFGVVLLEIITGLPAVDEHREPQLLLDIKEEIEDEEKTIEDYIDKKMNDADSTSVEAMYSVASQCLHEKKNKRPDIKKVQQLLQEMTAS
Experimental: Experimental objective: The experiment aims to evaluate the degradation effect of the test compounds on the target protein IRAK4 in K562 IRAK4-HiBiT cells.
• Cells: K562 IRAK4-HiBiT cells • Culture medium: RPMI 1640+10% fetal bovine serum+2 mM glutamine+1 mM sodium pyruvate+penicillin/streptomycin. • Positive control: 1000 nM; negative control: 0.1% DMSO.
• (1). The powder of the compound to be tested was dissolved in DMSO to a storage concentration of 10 mM. A total of 9 μL of the 10 mM of the compound to be tested was manually pipetted into the 1st and 13th columns of the LDV plate using a pipettor; • (2). A volume of 6 μL of DMSO was added to columns 2-12 and 14-24 using a Multidrop Combi; • (3). A 3-fold dilution of the test compounds (3 μL+6 μL) was performed using Bravo, for columns 1-11 and 13-23; • (4). According to the plate layout, 25 nL of compound solution (columns 1-24 of the LDV plate) was transferred to the experimental plate using Echo; • (5) 25 nL of the 1 mM positive control solution was transferred to the assay plate as a 100% degradation control (i.e. LC, HPE), and 25 nL of DMSO was transferred to the assay plate as a 0% control (i.e. HC, ZPE).
• (1) The culture medium was discarded, and the cells were washed once with DPBS, digested with trypsin, counted, and prepared into a cell suspension of […]. • (2) Using the MultiDrop Combi at a medium speed, 25 μL/well of the cell suspension was added to the experimental plate containing the test compounds; • (3) The experimental plate containing cells was returned to the incubator and cultured for 16 to 18 hours at 37° C. and 5% CO2.
• (1). Using the MultiDrop Combi at a high speed, 25 μL/well of the assay reagent (NanoGlo lytic solution+substrate+LgBit protein) was added to the assay plate, followed by shaking for 10 minutes; • (2) The plate was centrifuged at 2000 rpm for 1 minute to remove any bubbles; • (3) Readings were obtained by using an Envision, US Luminescence reader.
To calculate the degradation rate (DR) of the test compounds, the following formula is used: IR (%)=(RLU vehicle control−RLU compound)/(RLU vehicle control−RLU positive control)×100%. The solvent control refers to the blank control. The degradation rates of compounds at different concentrations were calculated in Excel, and then XLFit software was used to plot inhibition curves and calculate relevant parameters, including minimum degradation rate, maximum degradation rate, and DC50.

IKZF1 = target: T2, IKZF1 (Homo sapiens, UniProt Q13422+Q96SW2); test: In Cell Western of IKZF1 protein expression level in MM.1S cells; assay type: cell-based; settings: IKZF1, MM.1S cells, 24 hours
T2 construct: host or cells: MM.1S cells
T2 sequence (Q13422 whole entry): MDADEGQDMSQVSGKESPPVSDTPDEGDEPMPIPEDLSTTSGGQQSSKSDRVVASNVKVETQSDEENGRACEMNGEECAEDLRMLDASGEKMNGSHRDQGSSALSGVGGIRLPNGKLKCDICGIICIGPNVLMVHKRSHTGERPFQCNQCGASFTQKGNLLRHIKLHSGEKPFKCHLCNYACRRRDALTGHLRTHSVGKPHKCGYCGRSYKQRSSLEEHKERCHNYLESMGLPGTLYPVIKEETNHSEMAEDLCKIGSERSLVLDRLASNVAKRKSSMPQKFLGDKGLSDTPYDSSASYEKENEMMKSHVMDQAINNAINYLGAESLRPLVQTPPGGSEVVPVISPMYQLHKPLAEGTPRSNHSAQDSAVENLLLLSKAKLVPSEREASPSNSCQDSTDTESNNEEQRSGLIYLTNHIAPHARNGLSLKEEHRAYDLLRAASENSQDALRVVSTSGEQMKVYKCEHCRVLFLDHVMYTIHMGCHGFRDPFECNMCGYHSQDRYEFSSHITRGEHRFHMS
T2 sequence (Q96SW2 whole entry): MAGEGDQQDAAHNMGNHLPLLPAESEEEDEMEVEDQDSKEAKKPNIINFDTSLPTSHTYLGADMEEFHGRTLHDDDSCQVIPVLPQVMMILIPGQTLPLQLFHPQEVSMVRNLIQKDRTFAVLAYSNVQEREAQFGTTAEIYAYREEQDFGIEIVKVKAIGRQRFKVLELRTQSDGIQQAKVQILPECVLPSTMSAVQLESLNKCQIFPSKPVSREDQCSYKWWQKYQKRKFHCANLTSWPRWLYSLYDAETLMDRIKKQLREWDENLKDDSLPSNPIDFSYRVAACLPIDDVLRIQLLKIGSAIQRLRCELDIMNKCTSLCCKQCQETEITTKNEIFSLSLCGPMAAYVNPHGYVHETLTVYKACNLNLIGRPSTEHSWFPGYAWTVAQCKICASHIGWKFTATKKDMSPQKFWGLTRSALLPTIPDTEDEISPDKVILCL
T2 sequence (Q16531 whole entry partner): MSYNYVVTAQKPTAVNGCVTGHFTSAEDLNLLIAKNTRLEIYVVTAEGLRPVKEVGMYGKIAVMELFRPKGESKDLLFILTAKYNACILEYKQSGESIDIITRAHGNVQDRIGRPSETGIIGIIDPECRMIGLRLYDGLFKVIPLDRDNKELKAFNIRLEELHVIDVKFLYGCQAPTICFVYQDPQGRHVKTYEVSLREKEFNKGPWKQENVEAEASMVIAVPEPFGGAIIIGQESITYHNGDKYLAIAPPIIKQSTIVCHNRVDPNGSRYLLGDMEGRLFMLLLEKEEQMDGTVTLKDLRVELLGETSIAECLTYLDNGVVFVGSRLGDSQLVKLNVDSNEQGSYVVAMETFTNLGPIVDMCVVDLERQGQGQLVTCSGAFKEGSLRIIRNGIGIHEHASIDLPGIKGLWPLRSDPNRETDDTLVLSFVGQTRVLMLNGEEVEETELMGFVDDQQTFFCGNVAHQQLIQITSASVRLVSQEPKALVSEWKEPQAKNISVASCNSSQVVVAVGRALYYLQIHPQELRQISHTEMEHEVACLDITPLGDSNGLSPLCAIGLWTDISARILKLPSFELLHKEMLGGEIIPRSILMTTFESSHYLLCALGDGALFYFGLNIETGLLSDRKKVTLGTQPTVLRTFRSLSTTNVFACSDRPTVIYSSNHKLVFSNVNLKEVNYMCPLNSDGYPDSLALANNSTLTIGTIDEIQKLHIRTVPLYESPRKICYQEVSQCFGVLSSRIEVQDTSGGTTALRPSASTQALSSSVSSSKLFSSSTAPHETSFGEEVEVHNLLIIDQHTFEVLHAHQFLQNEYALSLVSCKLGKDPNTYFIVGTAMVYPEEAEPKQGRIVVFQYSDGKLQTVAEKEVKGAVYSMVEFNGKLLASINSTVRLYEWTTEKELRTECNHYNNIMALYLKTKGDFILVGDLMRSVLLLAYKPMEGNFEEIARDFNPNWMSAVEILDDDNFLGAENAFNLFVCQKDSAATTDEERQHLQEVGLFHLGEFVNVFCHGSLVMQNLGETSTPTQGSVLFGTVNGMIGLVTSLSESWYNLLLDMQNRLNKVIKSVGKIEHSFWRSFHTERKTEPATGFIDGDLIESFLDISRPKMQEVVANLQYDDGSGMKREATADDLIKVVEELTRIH
Experimental: Experimental objective: The experiment aims to assess the degradation effect of the test compounds on IKZF1 and 1KZF3 proteins in MM.1S cells by evaluating the impact of the test compounds on the expression levels of IKZF1 and IZKZF3 proteins in MM.1S cells.
• Cell lines: MMN.1 S cell (sourced from ATCC; Cat. No CRL-2974) • Negative control: 0.100 DMSO.
• 1) Log phase MM.1 S cells were plated in a 96-well plate at 1.2×10^5 cells per well and cultured overnight; • 2) The next day, compounds were added with a starting concentration of 300 nM, diluted threefold across three replicate wells for 10 concentration gradients (including DMSO), and the cells were incubated for 24 hours in an incubator; • 3) The cells were centrifuged, and the supernatant was carefully removed. 150 μL of 4% paraformaldehyde fixative was added along the wall of the wells, avoiding contact with the bottom cells, and the cells were incubated at room temperature for 20 minutes; • 4) Lysis buffer was prepared by mixing 0.5 mL of 10% Triton X-100 with 49.5 mL of PBS until homogenous; • 5) 200 μL of lysis buffer was added along the well walls, again avoiding the bottom cells, and incubated on a shaker at room temperature for 5 minutes; • 6) The wells were washed four times; • 7) 150 μL of Licor […] Blocking Buffer was added along the well walls, avoiding the bottom cells, and the cells were incubated on a shaker at room temperature for 1.5 hours; • 8) Ikaros (D6N9Y) Rabbit mAb, Aiolos (D1C1E) Rabbit mAb and GAPDH mouse mAb (proteintech, 60004-1-Ig) were diluted at a 1:100 ratio using antibody dilution buffer; • 9) 50 μL of mixed antibody was added to each well with three replicate wells, and the cells were incubated overnight on a shaker at 4° C.; • 10) PBST (PBS with 0.1% Tween 20) was prepared; • 11) The primary antibodies were removed, and 200 μL of PBST was added along the well walls, avoiding the bottom cells, and the cells were incubated on a shaker at room temperature for 5 minutes; • 12) The wells were washed four times; • 13) Secondary antibody dilution buffer was prepared by adding Tween 20 to Licor […] Blocking Buffer to a final concentration of 0.2%; • 14) Fluorescent secondary antibodies were diluted in the dark at a 1:800 ratio. To 400 μL of secondary antibody dilution solution, 0.5 μL of each IRDye 800CW and IRDye 680CW (corresponding to the primary antibodies) was added. • 15) 50 μL of the diluted fluorescent secondary antibodies was added to each well and the cells were incubated on a shaker at room temperature in the dark for 60 minutes; • 16) The secondary antibodies were removed, and 200 μL of PBST was added along the well walls, avoiding the bottom cells, and the cells were incubated on a shaker at room temperature in the dark for 5 minutes; • 17) The wells were washed four times; immediately after washing, the Odyssey Gel Imaging System was used for detection at dual wavelengths of 700 nm and 800 nm.
Using GraphPad Prism 6 software, inhibition rate data was entered to fit the curve and calculate the DC50 value.

| IC50 (SU-DHL-2; Homo sapiens, 96 h) | DC50 (IRAK4) | Dmax (IRAK4; read-out: Maximum degradation rate) | DC50 (IKZF1) | Dmax (IKZF1; MM1.S, read-out: Maximum degradation rate Dmax) | SMILES | Maximum inhibition rate (SU-DHL-2) |
| --- | --- | --- | --- | --- | --- | --- |
| 64.5 nM |  |  |  |  | CN(CCCOCCCc1ccc2occ(C3CCC(=O)NC3=O)c2c1)C[C@H]1CC[C@H](n2cc(NC(=O)c3coc(-c4ccnc(NCC5CC5)c4)n3)c(C(F)F)n2)CC1 (stereo partly drawn) [Hydrochloride of WX004] | 99.05% |
|  | 70.7 nM | 93.1% | 6.02 nM | 81.6% | CN(CCCOCCCc1ccc2c(ccc3onc(C4CCC(=O)NC4=O)c32)c1)C[C@H]1CC[C@H](n2cc(NC(=O)c3coc(-c4ccnc(NCC5CC5)c4)n3)c(C(F)F)n2)CC1 (stereo partly drawn) [Hydrochloride of WX016] |  |
